Source: PubChem BioAssay AID248 (DTP/NCI, 2004)
“And” between values parts separate entries of the source, which are not always exact repeats. Equal values may be shown once. Toxic doses and inconclusive results are not listed. Rule as the data show it: active = T/C of 150% or more; inactive = T/C below 125%.

System: L1210 leukemia ip in BDF1 mice, survival T/C
Assay: NCI In Vivo Anticancer Drug Screen. Data for tumor model L1210 Leukemia (intraperitoneal) in B6D2F1 (BDF1) mice
Details: endpoint: mean survival time, higher = longer survival
Method in brief: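 Antitumor effect is assessed in tumor-bearing animals. Survival in the compound arm is compared with a vehicle-dosed control arm and expressed as their quotient.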

[1] = dose: 100.0 mg/kg/injection, schedule: Q01DX001 (ip), vehicle: saline
[2] = dose: 200.0 mg/kg/injection, schedule: Q01DX001 (ip), vehicle: saline
[3] = dose: 400.0 mg/kg/injection, schedule: Q01DX001 (ip), vehicle: saline
[4] = dose: 100.0 mg/kg/injection, schedule: Q01DX009 (ip), vehicle: saline with Tween-80
[5] = dose: 200.0 mg/kg/injection, schedule: Q01DX009 (ip), vehicle: saline with Tween-80
[6] = dose: 400.0 mg/kg/injection, schedule: Q01DX009 (ip), vehicle: saline with Tween-80
[7] = dose: 50.0 mg/kg/injection, schedule: Q01DX009 (ip), vehicle: saline with Tween-80
[8] = dose: 100.0 mg/kg/injection, schedule: Q04DX003 (ip), vehicle: saline with Tween-80
[9] = dose: 200.0 mg/kg/injection, schedule: Q04DX003 (ip), vehicle: saline with Tween-80
[10] = dose: 100.0 mg/kg/injection, schedule: Q01DX009 (ip), vehicle: saline
[11] = dose: 200.0 mg/kg/injection, schedule: Q01DX009 (ip), vehicle: saline
[12] = dose: 400.0 mg/kg/injection, schedule: Q01DX009 (ip), vehicle: saline
[13] = dose: 400.0 mg/kg/injection, schedule: Q04DX003 (ip), vehicle: saline with Tween-80
[14] = dose: 100.0 mg/kg/injection, schedule: Q04DX003 (ip), vehicle: Klucel (hydroxypropylcellulose) (HPC)
[15] = dose: 200.0 mg/kg/injection, schedule: Q04DX003 (ip), vehicle: Klucel (hydroxypropylcellulose) (HPC)
[16] = dose: 400.0 mg/kg/injection, schedule: Q04DX003 (ip), vehicle: Klucel (hydroxypropylcellulose) (HPC)
[17] = dose: 100.0 mg/kg/injection, schedule: Q01DX009 (ip), vehicle: Klucel (hydroxypropylcellulose) (HPC)
[18] = dose: 200.0 mg/kg/injection, schedule: Q01DX009 (ip), vehicle: Klucel (hydroxypropylcellulose) (HPC)
[19] = dose: 400.0 mg/kg/injection, schedule: Q01DX009 (ip), vehicle: Klucel (hydroxypropylcellulose) (HPC)
[20] = dose: 100.0 mg/kg/injection, schedule: Q01DX001 (ip), vehicle: carboxymethylcellulose (CMC)
[21] = dose: 200.0 mg/kg/injection, schedule: Q01DX001 (ip), vehicle: carboxymethylcellulose (CMC)

Measured: T/C

CN(C)C1=C(N2CC2)C(=O)C(N(C)C)=C(N2CC2)C1=O
inactive: dose: 0.09 mg/kg/injection, schedule: Q01DX001 (ip), vehicle: saline 107 % of control | dose: 0.09 mg/kg/injection, schedule: Q01DX009 (ip), vehicle: saline 93 % of control and 116 % of control | dose: 0.09 mg/kg/injection, schedule: Q04DX003 (ip), vehicle: saline 94 % of control and 107 % of control | dose: 0.18 mg/kg/injection, schedule: Q01DX001 (ip), vehicle: saline 108 % of control | dose: 0.18 mg/kg/injection, schedule: Q01DX009 (ip), vehicle: saline 96 % of control and 108 % of control | dose: 0.37 mg/kg/injection, schedule: Q01DX001 (ip), vehicle: saline 97 % of control | dose: 0.37 mg/kg/injection, schedule: Q01DX009 (ip), vehicle: saline 114 % of control and 116 % of control | dose: 0.75 mg/kg/injection, schedule: Q01DX001 (ip), vehicle: saline 98 % of control | dose: 0.75 mg/kg/injection, schedule: Q01DX009 (ip), vehicle: saline 110 % of control | dose: 1.5 mg/kg/injection, schedule: Q01DX001 (ip), vehicle: saline 115 % of control | dose: 1.5 mg/kg/injection, schedule: Q01DX009 (ip), vehicle: saline 93 % of control

CC1=CP(=O)(c2ccccc2)CC1 (stereo not drawn)
inactive: [1] 102 % of control | [2] 102 % of control | [3] 105 % of control

CC(C)(C)S(=O)(=O)C(C)(C)C
inactive: [4] 93 % of control | [5] 90 % of control | [6] 88 % of control

Cc1csc(/N=C/c2ccc([N+](=O)[O-])o2)n1
inactive: [7] 100 % of control | [4] 105 % of control | [8] 103 % of control | [5] 101 % of control | [9] 97 % of control

COC(=O)C1C2CC(=O)C(C2)C1C(=O)OC (stereo not drawn)
inactive: [10] 96 % of control | [8] 98 % of control | dose: 100.0 mg/kg/injection, schedule: Q04DX003 (ip), vehicle: saline 100 % of control | [11] 105 % of control | [9] 86 % of control | dose: 200.0 mg/kg/injection, schedule: Q04DX003 (ip), vehicle: saline 100 % of control | [12] 99 % of control | [13] 91 % of control | dose: 400.0 mg/kg/injection, schedule: Q04DX003 (ip), vehicle: saline 96 % of control

COC1C(O)C(O)C(O)C(O)C1OS(=O)(=O)c1ccc(C)cc1 (stereo not drawn)
inactive: dose: 375.0 mg/kg/injection, schedule: Q01DX001 (ip), vehicle: carboxymethylcellulose (CMC) 105 % of control | dose: 750.0 mg/kg/injection, schedule: Q01DX001 (ip), vehicle: carboxymethylcellulose (CMC) 107 % of control | dose: 1500.0 mg/kg/injection, schedule: Q01DX001 (ip), vehicle: carboxymethylcellulose (CMC) 98 % of control

O=C(COc1ccc(Cl)cc1Cl)NCCO
inactive: [14] 98 % of control | [15] 97 % of control | [16] 111 % of control

COc1ccc(Cc2ccc(OC)c(OC)c2)cc1OC
inactive: dose: 200.0 mg/kg/injection, schedule: Q04DX003 (ip), vehicle: acetone 124 % of control | dose: 400.0 mg/kg/injection, schedule: Q04DX003 (ip), vehicle: acetone 100 % of control

NC(=S)N/N=C/c1ccccc1N
inactive: [4] 102 % of control | [5] 96 % of control | [6] 96 % of control

Cc1ccc([N+](=O)[O-])cc1N1CCNC1=O
inactive: [17] 104 % of control | [14] 102 % of control | [18] 102 % of control | [15] 98 % of control | [19] 100 % of control | [16] 101 % of control

CNc1ccccc1CO
inactive: dose: 100.0 mg/kg/injection, schedule: Q04DX003 (ip), vehicle: other 95 % of control | dose: 200.0 mg/kg/injection, schedule: Q04DX003 (ip), vehicle: other 104 % of control | dose: 400.0 mg/kg/injection, schedule: Q04DX003 (ip), vehicle: other 107 % of control

Cc1ccc(/C=C(\C#N)C(=O)O)cc1
inactive: dose: 12.5 mg/kg/injection, schedule: Q01DX009 (ip), vehicle: saline with Tween-80 94 % of control | dose: 25.0 mg/kg/injection, schedule: Q01DX009 (ip), vehicle: saline with Tween-80 94 % of control | [7] 100 % of control and 88 % of control

CCCCNC(=O)NC(C)c1ccccc1 (stereo not drawn)
inactive: dose: 100.0 mg/kg/injection, schedule: Q04DX002 (ip), vehicle: Klucel (hydroxypropylcellulose) (HPC) 112 % of control | dose: 200.0 mg/kg/injection, schedule: Q04DX002 (ip), vehicle: Klucel (hydroxypropylcellulose) (HPC) 112 % of control | dose: 400.0 mg/kg/injection, schedule: Q04DX002 (ip), vehicle: Klucel (hydroxypropylcellulose) (HPC) 105 % of control

CCOC(=O)N1CCC(=C(C#N)c2ccccc2)CC1
inactive: [14] 92 % of control | [15] 92 % of control

c1ccc2c3nc4ccccc4c-3scc2c1
inactive: dose: 100.0 mg/kg/injection, schedule: Q01DX001 (ip), vehicle: acetone 100 % of control | dose: 200.0 mg/kg/injection, schedule: Q01DX001 (ip), vehicle: acetone 103 % of control

CC(C)(C)N(CSc1ccc(Cl)cc1)CSc1ccc(Cl)cc1
inactive: [1] 104 % of control | [2] 104 % of control

C=CC(C)(O)C(C)(C)C (stereo not drawn)
inactive: [7] 100 % of control | [4] 96 % of control | [5] 100 % of control

CC/C(=N/Nc1ccc([N+](=O)[O-])cc1[N+](=O)[O-])c1cccs1
inactive: [20] 100 % of control | [21] 97 % of control

CCOCCCSP(SCCCOCC)SCCCOCC
inactive: [10] 101 % of control | [11] 102 % of control | [12] 104 % of control

NCS(=O)(=O)O
inactive: dose: 25.0 mg/kg/injection, schedule: Q01DX001 (ip), vehicle: saline with Tween-80 107 % of control | dose: 50.0 mg/kg/injection, schedule: Q01DX001 (ip), vehicle: saline with Tween-80 107 % of control | [17] 98 % of control | [10] 100 % of control | [18] 98 % of control | [11] 93 % of control | [19] 95 % of control | [12] 88 % of control

O=C1OC(c2ccccc2)=NC1(c1ccccc1)C1(c2ccccc2)N=C(c2ccccc2)OC1=O (stereo not drawn)
inactive: [8] 88 % of control | [9] 93 % of control | [13] 86 % of control

Nc1nc2c(c(=O)[nH]1)CN(C(CCc1ccc(N(CCCl)CCCl)cc1)C(=O)O)CN2 (stereo not drawn)
inactive: dose: 12.5 mg/kg/injection, schedule: Q01DX001 (ip), vehicle: carboxymethylcellulose (CMC) 111 % of control | dose: 25.0 mg/kg/injection, schedule: Q01DX001 (ip), vehicle: carboxymethylcellulose (CMC) 107 % of control | dose: 50.0 mg/kg/injection, schedule: Q01DX001 (ip), vehicle: carboxymethylcellulose (CMC) 113 % of control | dose: 50.0 mg/kg/injection, schedule: Q01DX009 (ip), vehicle: carboxymethylcellulose (CMC) 101 % of control | [20] 111 % of control | dose: 100.0 mg/kg/injection, schedule: Q01DX009 (ip), vehicle: carboxymethylcellulose (CMC) 108 % of control

C1CCCCCC(N2CCCC2)CCCCC1
inactive: dose: 6.0 mg/kg/injection, schedule: Q01DX009 (ip), vehicle: saline 107 % of control | dose: 12.0 mg/kg/injection, schedule: Q01DX009 (ip), vehicle: saline 102 % of control | dose: 12.5 mg/kg/injection, schedule: Q04DX003 (ip), vehicle: saline 100 % of control | dose: 25.0 mg/kg/injection, schedule: Q01DX009 (ip), vehicle: saline 100 % of control | dose: 25.0 mg/kg/injection, schedule: Q04DX003 (ip), vehicle: saline 95 % of control

Cc1ccnc(NS(=O)(=O)c2ccc(N=Nc3c(N)nc(N)[nH]c3=O)cc2)n1
inactive: [20] 103 % of control | [21] 97 % of control | dose: 400.0 mg/kg/injection, schedule: Q01DX001 (ip), vehicle: carboxymethylcellulose (CMC) 103 % of control

N=C(N)c1cccc(CCCCc2ccc(N)cc2)c1
inactive: [14] 94 % of control | [15] 99 % of control

COC(=O)C(NC(=O)C(C)NC(=O)OC(C)(C)C)C(C)O (stereo not drawn)
inactive: [1] 101 % of control | [2] 99 % of control | [3] 101 % of control

Cc1cccc(C)c1N(COC(C)C)C(=O)CCl
inactive: [4] 94 % of control | [5] 95 % of control
